The subject of one test is STAT3 phosphorylation. The test can be described thus: STAT3 phosphorylation in T cells. The format is cell-based, human.
The subject of test [1] is CD4+ human T cells. The test can be described thus: cytokine secretion in anti-CD3/CD28 stimulated CD4+ T cells in vitro. The format is cell-based. The settings on record: anti-CD3/CD28 stimulation.
The test system of a further test is human CD4+ T cells. The test can be described thus: Foxp3 expression in CD4+ T cells after Th17 skewing activation. The format is cell-based. The conditions noted are these: 5 days of Th17 skewing activation.
Test [2] has as its system CD4+ T cells from RA patients. The test can be described thus: cytokine secretion ex vivo in CD3/CD28 stimulated CD4+ T cells from RA patients. Format: cell-based, human.
The next test deals with CD4+CD25+ human Tregs. The test can be described thus: Treg suppression of IL-17 secretion in CD4+CD25- effector T cells. The format is cell-based. The settings on record: Tregs treated 3 hours; Treg:Teff 1:4 and 1:9.
The subject of the next test is PBMCs. Kind of test: ex vivo anti-CD3/CD28 stimulation of cytokine production in PBMCs isolated from treated patients. Also on record: species or system human. The settings on record: 120 mg/day on days 1 and 8-14.
Test [3] deals with CD4+ human T cells. Kind of test: proliferation of T cells in response to TCR stimulation in vitro. The format is cell-based. The settings on record: listed as KD025.
For test [4], the system named is TGF-β-induced STAT3, MLC and SMAD2/3 phosphorylation. The test can be described thus: TGF-β-induced phosphorylation of STAT3, MLC and SMAD2/3 in Tregs.
The mark [5] stands for this setting: CD4+ T cells from RA patients, ex vivo, listed as KD025.

Entries after “also recorded” stand apart in the source; their conditions may differ.

For the compound `CC(C)NC(=O)COc1cccc(-c2nc(Nc3ccc4[nH]ncc4c3)c3ccccc3n2)c1` [SLx-2119], the STAT3 phosphorylation result in the test on STAT3 phosphorylation (Th17-skewing conditions 5 days, then treatment 3 hours) was “STAT3 phosphorylation was reduced”. Besides, in the test with STAT3 phosphorylation (anti-CD3/CD28, TGF-β and IL-1β, 48 hours (FIG. 9C)), the “phosphorylation of STAT3, IRF4 and RORγt” value was “reduced phosphorylation of STAT3, as well as IFR4 and RORγT, was confirmed”. For the same compound, in the test on STAT3 phosphorylation (pre-treatment, then anti-CD3/CD28 stimulation), the “phosphorylation of STAT3” value is “reduced phosphorylation of STAT3”. For the same compound, in the test with CD4+ human T cells [1], the IFN-γ secretion entry is “less robust and significant only at high dose (10 μM)”; the IL-2 secretion result is “observed only at the highest concentration (10 μM)”. Also, in the test with CD4+ human T cells [1] (listed as KD025), the IL-17 secretion result is reported as “inhibits; also recorded: significantly inhibited” and the IL-21 secretion result is given as “inhibits; also recorded: significantly inhibited”. In addition, the “percentage of Foxp3+ cells” value in the test on human CD4+ T cells was “significantly increased”. Also, in test [2] (2 RA patients, intracellular staining), the “frequencies of IL-17 and IFN-γ-producing cells” value is recorded as “significantly reduced the frequencies”. In test [2] (setting [5]), the IFN-γ secretion result was “inhibits; also recorded: significantly down-regulated”, the IL-17 secretion entry is reported as “inhibits; also recorded: significantly down-regulated” and the IL-21 secretion entry is “inhibits; also recorded: significantly down-regulated”. Also, in the test on CD4+CD25+ human Tregs, the “ability of Tregs to suppress IL-17 secretion in CD4+CD25- effector T cells” value was “significantly increased”. In the test with PBMCs, the “IFN-γ in PBMCs” value is reported as “No effect”, the “induction of IL-17 secretion in PBMCs” value is “significantly inhibited in PBMCs isolated from four of five patients” and the “induction of IL-21 secretion in PBMCs” value is recorded as “significantly inhibited in PBMCs from all five patients”. Also, the “proliferation in response to TCR stimulation” value in the test on CD4+ human T cells [3] is on record as “inhibits; also recorded: down-regulated their ability to proliferate”. Also, the “phosphorylation of SMAD2/3” value in test [4] was “remains intact”. For the same compound, in test [4] (dose-dependent), the “TGF-β-induced MLC phosphorylation” value is recorded as “down-regulates” and the “TGF-β-induced STAT3 phosphorylation” value was “down-regulates”.

These data come from patent US9815820B2, “Rho kinase inhibitors” (priority 2012, dated 2017).
